Structures are written as SMILES.

For the first assay, the system named is P. falciparum (NF54 or 3D7 strain) in infected human erythrocytes. Briefly: Assay for P. falciparum proliferation in infected human blood cells (SYBR Green). In kind it is cell-based. The following applies: Plasmodium falciparum, Erythrocyte, 72 h, read-out: EC50 (nM), inhibitory efficacy in delaying P. falciparum proliferation in infected human blood cells. The procedure: Assay for P. falciparum Proliferation in Infected Human Blood Cells
Compounds of the invention can be assayed to measure their capacity to inhibit proliferation of P. falciparum parasitemia in infected red blood cells. This parasite proliferation assay measures the increase in parasite DNA content using a DNA intercalating dye, SYBR Green® (INVITROGEN®) which has a high affinity for double stranded DNA.
NF54 or 3D7 P. falciparum strain is grown in complete culturing media until parasitemia reaches 3% to 8% with O+ human erythrocytes. […] 20 μl of screening media is dispensed into 384 well assay plates. 50 nl of compounds of the invention (in DMSO), including antimalarial controls (mefloquine, pyrimethamine and artemisinin), are then transferred into the assay plates, as well as DMSO alone to serve as a negative control for inhibition. Then 30 μl of a suspension of a NF54 or 3D7 P. falciparum infected erythrocytes in screening media is dispensed into the assay plates such that the final hematocrit is 2.5% with a final parasitemia of 0.3%. The plates are placed in a 37° C. incubator for 72 hours in a low oxygen environment containing 93% N2, 4% CO2, and 3% O2 gas mixture. 10 μl of lysis buffer (saponin, triton-X, EDTA) containing a 10× solution of SYBR Green I® in RPMI media is dispensed into the plates. The plates are lidded and kept at room temperature overnight for the lysis of the infected red blood cells. The fluorescence intensity is measured (excitation […], emission 530 nm) using the Envision™ system (Perkin Elmer). The percentage inhibition of 50%, […], is calculated for each compound.
As for `Fc1ccc(CCc2ccn3ncc(-c4ccc(C(F)(F)F)cc4)c3c2)cc1` [Example 16, 5-(4-fluorophenethyl)-3-(4-(trifluoromethyl)phenyl)pyrazolo[1,5-a]pyridine], the EC50 turned out to be 477 nM.

Staying with this assay, now noted: Plasmodium falciparum, Erythrocyte; NF54 or 3D7 strain, 72 hours, SYBR Green fluorescence; read-out: EC50 (nM), inhibitory efficacy in delaying P. falciparum proliferation in infected human blood cells.
With `CN(C)C(=O)c1cc(-c2cnn3ccc(C(=O)N(C)c4ccc(C#N)cn4)cc23)cnc1N` [Example 87, 3-(6-amino-5-(dimethylcarbamoyl)pyridin-3-yl)-N-(5-cyanopyridin-2-yl)-N-methylpyrazolo[1,5-a]pyridine-5-carboxamide], the EC50 came out at 41 nM.
On the same count and under the same terms, as for `CN(C(=O)c1ccn2ncc(-c3cnc(N)nc3)c2c1)c1ccc(C#N)cc1` [Example 83, 3-(2-aminopyrimidin-5-yl)-N-(4-cyanophenyl)-N-methylpyrazolo[1,5-a]pyridine-5-carboxamide], the figure is 4 nM; as for `CNC(=O)c1ccc(-c2cnn3ccc(C(=O)N(C)c4ccc(F)cc4)cc23)cc1` [Example 64, N-(4-fluorophenyl)-N-methyl-3-(4-(methylcarbamoyl)phenyl)pyrazolo[1,5-a]pyridine-5-carboxamide], 20 nM; as for `CN(C(=O)c1ccc(F)cn1)c1ccn2ncc(-c3ccc(C(F)(F)F)cc3)c2c1` [Example 51, 5-fluoro-N-methyl-N-(3-(4-(trifluoromethyl)phenyl)pyrazolo[1,5-a]pyridin-5-yl)picolinamide], 60 nM.
As to `CN(C(=O)c1ccn2ncc(-c3cnc(N)c(C#N)c3)c2c1)c1ccc(C#N)cn1` [Example 85, 3-(6-amino-5-cyanopyridin-3-yl)-N-(5-cyanopyridin-2-yl)-N-methylpyrazolo[1,5-a]pyridine-5-carboxamide], the EC50 turned out to be 16 nM.
Take `N#Cc1ccc(C(=O)N(CC2CCOCC2)c2ccn3ncc(-c4ccc(C(F)(F)F)cc4)c3c2)cc1` [Example 39, 4-cyano-N-((tetrahydro-2H-pyran-4-yl)methyl)-N-(3-(4-(trifluoromethyl)phenyl)pyrazolo[1,5-a]pyridin-5-yl)benzamide]: the EC50 was found to be 831 nM.
Regarding `NC(=O)c1ccc(-c2cnn3ccc(C(=O)N4CCOc5cc(F)ccc54)cc23)cc1` [Example 71, 4-(5-(7-fluoro-3,4-dihydro-2H-benzo[b][1,4]oxazine-4-carbonyl)pyrazolo[1,5-a]pyridin-3-yl)benzamide], the EC50 was 3 nM.
On the same count and under the same terms, with `CNc1nnc(-c2ccc(-c3cnn4ccc(N(C)C(=O)c5ccc(F)cc5)cc34)cc2)s1` [Example 57, 4-fluoro-N-methyl-N-(3-(4-(5-(methylamino)-1,3,4-thiadiazol-2-yl)phenyl)pyrazolo[1,5-a]pyridin-5-yl)benzamide] the figure was 4 nM; with `COc1cc(-c2cnn3ccc(C(=O)N(C)c4ccc(C#N)cn4)cc23)cnc1N` [Example 88, 3-(6-amino-5-methoxypyridin-3-yl)-N-(5-cyanopyridin-2-yl)-N-methylpyrazolo[1,5-a]pyridine-5-carboxamide], 83 nM; with `CN(C(=O)c1ccn2ncc(-c3ccc(C(F)(F)F)cc3)c2c1)c1ccc(F)cc1` [Example 4, N-(4-fluorophenyl)-N-methyl-3-(4-(trifluoromethyl)phenyl)pyrazolo[1,5-a]pyridine-5-carboxamide], 46 nM.
Still for that read-out and setting: as for `Cc1ccc(N(C)Cc2ccn3ncc(-c4ccc(C(F)(F)F)cc4)c3c2)nc1` [Example 7, N,5-dimethyl-N-((3-(4-(trifluoromethyl)phenyl)pyrazolo[1,5-a]101yridine-5-yl)methyl)pyridine-2-amine], the figure is 975 nM.
Same read-out and setting: as for `CS(=O)(=O)c1ccc(N(CC2CCOCC2)C(=O)c2ccn3ncc(-c4ccc(C(F)(F)F)cc4)c3c2)cc1` [Example 12, N-(4-(methylsulfonyl)phenyl)-N-((tetrahydro-2H-pyran-4-yl)methyl)-3-(4-(trifluoromethyl)phenyl)pyrazolo[1,5-a]pyridine-5-carboxamide], the figure is 9 nM.
With `[O-][S+](Cc1ccn2ncc(-c3ccc(C(F)(F)F)cc3)c2c1)c1ccc(F)cc1` (stereo not drawn) [Example 22, 5-(((4-fluorophenyl)sulfinyl)methyl)-3-(4-(trifluoromethyl)phenyl)pyrazolo[1,5-a]pyridine], the EC50 came out at 25 nM.
For the compound `CN(C(=O)c1ccn2ncc(-c3cnc4[nH]ccc4c3)c2c1)c1ccc(S(C)(=O)=O)cn1` [Example 58, N-methyl-N-(5-(methylsulfonyl)pyridin-2-yl)-3-(1H-pyrrolo[2,3-b]pyridin-5-yl)pyrazolo[1,5-a]pyridine-5-carboxamide], the EC50 was 30 nM.
Take `CC(C)[C@H](N)C(=O)Nc1ccc(-c2cnn3ccc(C(=O)N(C)c4ccc(C#N)cc4)cc23)cc1` [Example 45, (S)-3-(4-(2-amino-3-methylbutanamido)phenyl)-N-(4-cyanophenyl)-N-methylpyrazolo[1,5-a]pyridine-5-carboxamide]: the EC50 amounted to 16 nM.
As for `Cc1ccc(-c2cnn3ccc(C(=O)N(C)c4ccc(C#N)cn4)cc23)nc1` [Example 59, N-(5-cyanopyridin-2-yl)-N-methyl-3-(5-methylpyridin-2-yl)pyrazolo[1,5-a]pyridine-5-carboxamide], the EC50 stood at 228 nM.
`CN(c1ccn2ncc(-c3ccc(C(F)(F)F)cc3)c2c1)S(=O)(=O)c1ccc(C#N)cc1` [Example 30, 4-cyano-N-methyl-N-(3-(4-(trifluoromethyl)phenyl)pyrazolo[1,5-a]pyridine-5-yl)benzenesulfonamide]: the EC50 was determined as 62 nM.
For `Cc1cncc(N(C)C(=O)c2ccn3ncc(-c4ccc(C(F)(F)F)cc4)c3c2)c1` [Example 14, N-methyl-N-(5-methylpyridin-3-yl)-3-(4-(trifluoromethyl)phenyl)pyrazolo[1,5-a]pyridine-5-carboxamide], the EC50 was determined as 134 nM.
`CC1COc2cc(F)ccc2N1C(=O)c1ccn2ncc(-c3ccc(C(N)=O)cc3)c2c1` (stereo not drawn) [Example 72, 4-(5-(7-fluoro-3-methyl-3,4-dihydro-2H-benzo[b][1,4]oxazine-4-carbonyl)pyrazolo[1,5-a]pyridin-3-yl)benzamide]: the EC50 was 5 nM.
With `CN(C(=O)c1ccn2ncc(-c3ccc(N)cc3)c2c1)c1ccc(C#N)cc1` [Example 42, 3-(4-aminophenyl)-N-(4-cyanophenyl)-N-methylpyrazolo[1,5-a]pyridine-5-carboxamide], the EC50 worked out at 18 nM.
Same read-out and setting: as for `CC(c1ccn2ncc(-c3ccc(C(N)=O)cc3)c2c1)N1C(=O)COc2cc(F)ccc21` (stereo not drawn) [Example 66, 4-(5-(1-(7-fluoro-3-oxo-2H-benzo[b][1,4]oxazin-4(3H)-yl)ethyl)pyrazolo[1,5-a]pyridin-3-yl)benzamide], the figure is 49 nM; as for `Cc1cc(-c2cnn3ccc(C(=O)N(C)c4ccc(C#N)cc4)cc23)cc(C)c1N` [Example 80, 3-(4-amino-3,5-dimethylphenyl)-N-(4-cyanophenyl)-N-methylpyrazolo[1,5-a]pyridine-5-carboxamide], 824 nM.
In the case of `CN(C(=O)c1ccn2ncc(-c3ccc(-c4ccn[nH]4)cc3)c2c1)c1ccc(C#N)cc1` [Example 23, 3-(4-(1H-pyrazol-5-yl)phenyl)-N-(4-cyanophenyl)-N-methylpyrazolo[1,5-a]pyridine-5-carboxamide], the EC50 came to 2 nM.
With `CN(C(=O)c1ccc(C(F)(F)F)nc1)c1ccn2ncc(-c3ccc(C(F)(F)F)cc3)c2c1` [Example 37, N-methyl-6-(trifluoromethyl)-N-(3-(4-(trifluoromethyl)phenyl)pyrazolo[1,5-a]pyridine-5-yl)nicotinamide], the EC50 was 121 nM.
Same read-out and setting: as for `CN(Cc1ccc(F)cc1)c1ccn2ncc(-c3ccc(C(F)(F)F)cc3)c2c1` [Example 36, N-(4-fluorobenzyl)-N-methyl-3-(4-(trifluoromethyl)phenyl)pyrazolo[1,5-a]pyridine-5-amine], the figure is 390 nM; as for `CN(C(=O)c1ccc(C(C)(F)F)nc1)c1ccn2ncc(-c3ccc(C(F)(F)F)cc3)c2c1` [Example 48, 6-(1,1-difluoroethyl)-N-methyl-N-(3-(4-(trifluoromethyl)phenyl)pyrazolo[1,5-a]pyridin-5-yl)nicotinamide], 288 nM; as for `CN(C(=O)c1ccn2ncc(-c3ccc(C(F)(F)F)cc3)c2c1)c1ccc(Cl)cc1` [Example 3, N-(4-chlorophenyl)-N-methyl-3-(4-(trifluoromethyl)phenyl)pyrazolo[1,5-a]pyridine-5-carboxamide], 94 nM.
In the case of `COCCN(C(=O)c1ccn2ncc(-c3ccc(C(F)(F)F)cc3)c2c1)c1ccc(C#N)cc1` [Example 9, N-(4-cyanophenyl)-N-(2-methoxyethyl)-3-(4-(trifluoromethyl)phenyl)pyrazolo[1,5-a]pyridine-5-carboxamide], the EC50 was 6 nM.
Same read-out and setting: as for `CN(C(=O)c1ccn2ncc(-c3ccc(C(N)=O)cn3)c2c1)c1ccc(C#N)cn1` [Example 61, 3-(5-carbamoylpyridin-2-yl)-N-(5-cyanopyridin-2-yl)-N-methylpyrazolo[1,5-a]pyridine-5-carboxamide], the figure is 20 nM.

The values above are taken from patent US8871754B2, “Compounds and compositions for the treatment of parasitic diseases” (IRM LLC, priority 2012, dated 2014).
